Read-outs that look alike come from different tables or passages of the source. Each block holds one compound with its values, some of them ahead of it.
Legend:
[1] = system: subjects with cirrhosis and HE; assay: HALT-HE clinical trial: count of HE events over 16 weeks by plasma ammonia level; type: in vivo, human
Protocol: The relationship between HE events and fasting ammonia levels was evaluated in subjects from the HALT-HE clinical trial (HPN-100-008, ClinicalTrials.gov identifier NCT00999167). To be eligible for HE analysis, subject had to (1) be included in the HALT-HE (Part B) safety population, (2) have at least one treatment with a study drug (either HPN-100 or placebo), and (3) have a quantifiable measurement of plasma ammonia from a blood specimen drawn at the visit and time point of interest. Of the 178 total subjects enrolled in the HALT-HE study and included in the safety population, 171 met the additional criteria.
Fasting ammonia levels were measured on day 1 (baseline) and at days 7 and 14. Day 1 values were derived from the measurement closest to, but prior to, initiation of dosing. Day 7 and 14 values were obtained from the nominal visit day and time point (pre-dose or 4-hour). To account for differences in local laboratories used during the clinical trial, local measurements of ammonia were standardized to an upper limit of normal (ULN) of 35 μmol/L according to the following formula:
Ammoniastd=Ammonialocal*(35/ULN of Ammonialocal).
[…] An HE event was defined as the occurrence of either (1) a West Haven Grade 2 or above or (2) a West Haven Grade 1 AND an asterixis grade increase of 1, if baseline West Haven was 0.
To describe the relationship between plasma ammonia levels and HE events, ammonia levels at the nominal times were initially grouped into five categories as multiples of the standardized ULN (35 μmol/L): (1) [0-≦0.5], (2) [0.5-≦1.0], (3) [1.0-≦1.5], (4) [1.5-≦2.0], and (5) [>2.0].
Each subject had between zero and eight HE episodes over the course of their exposure to study drug. The relationship between ammonia at a given nominal time and the number of HE events was modeled using a negative binomial model whereby the effect of study drug was considered only after controlling for ammonia level. […] Based on the model, the number of HE events was estimated for each level of ammonia. By comparing each level of ammonia to the lowest level, the pattern of the relationship could not only be described but also statistically tested through a priori contrasts.
The relationship between HE events and ammonia levels at day 7 (pre-dose), day 7 (four hours after dosing), day 14 (pre-dose), and day 14 (four hours after dosing) for each of these groups is summarized in FIGS. 2-6. […] The relationship between HE events and ammonia levels at day 1, day 7 (pre-dose), day 7 (four hours after dosing), day 14 (pre-dose), and day 14 (four hours after dosing) for each of these groups is summarized in Tables 1-5, respectively. In each table, the first three rows for each treatment group show results for the three category model ([0-1.0], [>1.0-1.5], and [>1.5]), while the next two rows show results for the two category model ([0-1.5] and [>1.5]). Note that, based on the statistical methodology, estimation of HE events for input category >1.5 in a two category model is not necessarily equal to the result for the three category model.

[2] = Conversion of PAA prodrug to urinary PAGN in 130 HE patients at steady state dosing; type: in vivo, human; details: steady state dosing with NaPBA or equivalent dose of HPN-100
Protocol: As disclosed herein, additional trials have been performed to evaluate the conversion of PAA to urinary PAGN in subjects with HE. Urinary PAGN output was measured in 130 HE patients during steady state dosing with either NaPBA or an equivalent dose of HPN-100. As summarized in Table 11, the mean percent conversion of PAA prodrug to urinary PAGN in HE patients was about 57%, with a 95% confidence interval range of 52-63%.

[3] = cited from earlier work; for Mean percent conversion of HPN-100 to urinary PAGN: 8 subjects
[4] = ammonia on day 7, four hours post-dose, [0-1.0] ULN, three category model
[5] = ammonia on day 7, four hours post-dose, [0-1.5] ULN, two category model
[6] = ammonia on day 7, four hours post-dose, [>1.0-1.5] ULN, three category model
[7] = ammonia on day 7, four hours post-dose, [>1.5] ULN, three category model
[8] = ammonia on day 7, four hours post-dose, [>1.5] ULN, two category model
[9] = ammonia on day 14 (pre-dose), [0-1.0] ULN, three category model
[10] = ammonia on day 14 (pre-dose), [0-1.5] ULN, two category model
[11] = ammonia on day 14 (pre-dose), [>1.0-1.5] ULN, three category model
[12] = ammonia on day 14 (pre-dose), [>1.5] ULN, three category model
[13] = ammonia on day 14 (pre-dose), [>1.5] ULN, two category model
[14] = ammonia on day 14, four hours post-dose, [0-1.0] ULN, three category model
[15] = ammonia on day 14, four hours post-dose, [0-1.5] ULN, two category model
[16] = ammonia on day 14, four hours post-dose, [>1.0-1.5] ULN, three category model
[17] = ammonia on day 14, four hours post-dose, [>1.5] ULN, three category model
[18] = ammonia on day 14, four hours post-dose, [>1.5] ULN, two category model
[19] = pre-dose ammonia on day 1, [0-1.0] ULN, three category model
[20] = pre-dose ammonia on day 1, [0-1.5] ULN, two category model
[21] = pre-dose ammonia on day 1, [>1.0-1.5] ULN, three category model
[22] = pre-dose ammonia on day 1, [>1.5] ULN, three category model
[23] = pre-dose ammonia on day 1, [>1.5] ULN, two category model
[24] = pre-dose ammonia on day 7, [0-1.0] ULN, three category model
[25] = pre-dose ammonia on day 7, [0-1.5] ULN, two category model
[26] = pre-dose ammonia on day 7, [>1.0-1.5] ULN, three category model
[27] = pre-dose ammonia on day 7, [>1.5] ULN, three category model
[28] = pre-dose ammonia on day 7, [>1.5] ULN, two category model

Mean percent conversion of PAA prodrug to urinary PAGN [2]: consistent
SMILES: O=C(CCCc1ccccc1)OCC(COC(=O)CCCc1ccccc1)OC(=O)CCCc1ccccc1 [HPN-100, glyceryl tri-[4-phenylbutyrate]]
No. of per-subject HE Events Estimated over 16 weeks [1, 4]: 0.16
No. of per-subject HE Events Estimated over 52 weeks [1, 4]: 0.51
No. of per-subject HE Events Max [1, 4]: 2
No. of per-subject HE Events Min [1, 4]: 0
No. of per-subject HE Events Estimated over 16 weeks [1, 5]: 0.41
No. of per-subject HE Events Estimated over 52 weeks [1, 5]: 1.34
No. of per-subject HE Events Max [1, 5]: 5
No. of per-subject HE Events Min [1, 5]: 0
No. of per-subject HE Events Estimated over 16 weeks [1, 6]: 0.88
No. of per-subject HE Events Estimated over 52 weeks [1, 6]: 2.85
No. of per-subject HE Events Max [1, 6]: 5
No. of per-subject HE Events Min [1, 6]: 0
No. of per-subject HE Events Estimated over 16 weeks [1, 7]: 1.16
No. of per-subject HE Events Estimated over 52 weeks [1, 7]: 3.77
No. of per-subject HE Events Max [1, 7]: 4
No. of per-subject HE Events Min [1, 7]: 0
No. of per-subject HE Events Estimated over 16 weeks [1, 8]: 1.18
No. of per-subject HE Events Estimated over 52 weeks [1, 8]: 3.85
No. of per-subject HE Events Max [1, 8]: 4
No. of per-subject HE Events Min [1, 8]: 0
No. of per-subject HE Events Estimated over 16 weeks [1, 9]: 0.36
No. of per-subject HE Events Estimated over 52 weeks [1, 9]: 1.18
No. of per-subject HE Events Max [1, 9]: 5
No. of per-subject HE Events Min [1, 9]: 0
No. of per-subject HE Events Estimated over 16 weeks [1, 10]: 0.37
No. of per-subject HE Events Estimated over 52 weeks [1, 10]: 1.21
No. of per-subject HE Events Max [1, 10]: 5
No. of per-subject HE Events Min [1, 10]: 0
No. of per-subject HE Events Estimated over 16 weeks [1, 11]: 0.40
No. of per-subject HE Events Estimated over 52 weeks [1, 11]: 1.29
No. of per-subject HE Events Max [1, 11]: 2
No. of per-subject HE Events Min [1, 11]: 0
No. of per-subject HE Events Estimated over 16 weeks [1, 12]: 1.29
No. of per-subject HE Events Estimated over 52 weeks [1, 12]: 4.21
No. of per-subject HE Events Max [1, 12]: 4
No. of per-subject HE Events Min [1, 12]: 0
No. of per-subject HE Events Estimated over 16 weeks [1, 13]: 1.29
No. of per-subject HE Events Estimated over 52 weeks [1, 13]: 4.21
No. of per-subject HE Events Max [1, 13]: 4
No. of per-subject HE Events Min [1, 13]: 0
No. of per-subject HE Events Estimated over 16 weeks [1, 14]: 0.28
No. of per-subject HE Events Estimated over 52 weeks [1, 14]: 0.92
No. of per-subject HE Events Max [1, 14]: 4
No. of per-subject HE Events Min [1, 14]: 0
No. of per-subject HE Events Estimated over 16 weeks [1, 15]: 0.33
No. of per-subject HE Events Estimated over 52 weeks [1, 15]: 1.09
No. of per-subject HE Events Max [1, 15]: 4
No. of per-subject HE Events Min [1, 15]: 0
No. of per-subject HE Events Estimated over 16 weeks [1, 16]: 0.41
No. of per-subject HE Events Estimated over 52 weeks [1, 16]: 1.33
No. of per-subject HE Events Max [1, 16]: 2
No. of per-subject HE Events Min [1, 16]: 0
No. of per-subject HE Events Estimated over 16 weeks [1, 17]: 0.96
No. of per-subject HE Events Estimated over 52 weeks [1, 17]: 3.13
No. of per-subject HE Events Max [1, 17]: 4
No. of per-subject HE Events Min [1, 17]: 0
No. of per-subject HE Events Estimated over 16 weeks [1, 18]: 0.97
No. of per-subject HE Events Estimated over 52 weeks [1, 18]: 3.14
No. of per-subject HE Events Max [1, 18]: 4
No. of per-subject HE Events Min [1, 18]: 0
No. of per-subject HE Events Estimated over 16 weeks [1, 19]: 0.25
No. of per-subject HE Events Estimated over 52 weeks [1, 19]: 0.80
No. of per-subject HE Events Max [1, 19]: 2
No. of per-subject HE Events Min [1, 19]: 0
No. of per-subject HE Events Estimated over 16 weeks [1, 20]: 0.39
No. of per-subject HE Events Estimated over 52 weeks [1, 20]: 1.26
No. of per-subject HE Events Max [1, 20]: 5
No. of per-subject HE Events Min [1, 20]: 0
No. of per-subject HE Events Estimated over 16 weeks [1, 21]: 0.61
No. of per-subject HE Events Estimated over 52 weeks [1, 21]: 1.98
No. of per-subject HE Events Max [1, 21]: 5
No. of per-subject HE Events Min [1, 21]: 0
No. of per-subject HE Events Estimated over 16 weeks [1, 22]: 1.35
No. of per-subject HE Events Estimated over 52 weeks [1, 22]: 4.37
No. of per-subject HE Events Max [1, 22]: 4
No. of per-subject HE Events Min [1, 22]: 0
No. of per-subject HE Events Estimated over 16 weeks [1, 23]: 1.36
No. of per-subject HE Events Estimated over 52 weeks [1, 23]: 4.41
No. of per-subject HE Events Max [1, 23]: 4
No. of per-subject HE Events Min [1, 23]: 0
No. of per-subject HE Events Estimated over 16 weeks [1, 24]: 0.29
No. of per-subject HE Events Estimated over 52 weeks [1, 24]: 0.95
No. of per-subject HE Events Max [1, 24]: 2
No. of per-subject HE Events Min [1, 24]: 0
No. of per-subject HE Events Estimated over 16 weeks [1, 25]: 0.45
No. of per-subject HE Events Estimated over 52 weeks [1, 25]: 1.47
No. of per-subject HE Events Max [1, 25]: 5
No. of per-subject HE Events Min [1, 25]: 0
No. of per-subject HE Events Estimated over 16 weeks [1, 26]: 0.90
No. of per-subject HE Events Estimated over 52 weeks [1, 26]: 2.92
No. of per-subject HE Events Max [1, 26]: 5
No. of per-subject HE Events Min [1, 26]: 0
No. of per-subject HE Events Estimated over 16 weeks [1, 27]: 1.38
No. of per-subject HE Events Estimated over 52 weeks [1, 27]: 4.50
No. of per-subject HE Events Max [1, 27]: 4
No. of per-subject HE Events Min [1, 27]: 0
No. of per-subject HE Events Estimated over 16 weeks [1, 28]: 1.40
No. of per-subject HE Events Estimated over 52 weeks [1, 28]: 4.56
No. of per-subject HE Events Max [1, 28]: 4
No. of per-subject HE Events Min [1, 28]: 0
Mean percent conversion of HPN-100 to urinary PAGN ([3]; control group of healthy adults with normal hepatic function): 68.6%
Mean percent conversion of HPN-100 to urinary PAGN ([3]; hepatic impairment with cirrhosis, Child-Pugh score A): 79.6%
Mean percent conversion of HPN-100 to urinary PAGN ([3]; hepatic impairment with cirrhosis, Child-Pugh score B): 58.2%
Mean percent conversion of HPN-100 to urinary PAGN ([3]; hepatic impairment with cirrhosis, Child-Pugh score C): 85.0%
Overall mean percent conversion of HPN-100 to urinary PAGN ([3]; overall for the four subject groups): about 75%

Mean percent conversion of PAA prodrug to urinary PAGN [2]: consistent
SMILES: O=C(O)CCCc1ccccc1 [sodium PBA, reference compound]
